Assay results taken from US8937183B2, “Detection of hydrogen peroxide” (Promega Corporation, priority 2011, dated 2015).

Test: Signal strength differences due to reaction pH and buffer composition (hydrogen peroxide, D-cysteine conversion, LDR)
Assay type: biochemical
Conditions: for Net Average Signals at 15 Minutes / Net Average Signals at 60 Minutes / Net Average Signals at 105 Minutes: 100 μl of 10 μM H2O2 added
Procedure: A 30 μl sample of 4 mg/ml PBI 4458 in DMSO was diluted to 1.5 ml with Nanopure water, and 50 μl added to wells A1-12 and E1-12 of a microtiter plate. A 30 μl sample of 4 mg/ml PBI 4472 in DMSO was diluted to 1.5 ml with Nanopure, and 50 μl added to wells B1-12 and F1-12 of the plate. A 30 μl sample of 4 mg/ml PBI 4480 in DMSO was diluted to 1.5 ml with Nanopure water, and 50 μl added to wells C1-12 and G1-12 of the plate. A 30 μl sample of 4 mg/ml PBI 4481 in DMSO was diluted to 1.5 ml with Nanopure water, and 50 μl added to wells D1-12 and H1-12 of the plate. To the plate, a 50 μl sample of 200 mM KHPO4, pH 7.4 was added to wells A1-D4; 50 μl 200 mM Tris buffer, pH 7.4 was added to wells A5-D8; 50 μl 250 mM HEPES buffer, pH 7.5 was added to wells A9-D12; 50 μl 200 mM KHPO4 buffer, pH 9.2 was added to wells E1-H4; 50 μl 250 mM Tris buffer, pH 10.4 was added to wells E5-H8; and 50 μl 100 mM CAPS buffer, pH 10.4 was added to wells E9-H12.
A sample of hydrogen peroxide (30%, Sigma, H1009-5 ml) was diluted to 10 μM with Nanopure water, and 100 μl added to columns 3, 4, 7, 8, 11, 12 wells A-H of the plate. 100 μl Nanopure water was added to columns 1, 2, 5, 6, 9 and 10 of the plate. The plate was incubated at room temperature for 15 minutes.
A conversion solution was made by mixing 5 ml of 1 M HEPES buffer, pH 7.5, 4.9 ml of Nanopure water and 100 μl of 100 mM D-cysteine (in Nanopure water), and […] added to all wells of a luminometer plate.
After incubation, 25 μl of sample from all wells in the plate was transferred and mixed into the corresponding wells in the luminometer plate, incubated 2-3 minutes at room temperature, and 50 μl LDR (Example 23) added. The luminometer plate was incubated for 15 minutes at room temperature, and bioluminescence detected on a GloMax® luminometer.
Additional samples were taken at 60 and 105 minutes and added to a fresh luminometer plates containing 25 μl of conversion solution in all wells. The plates were then incubated for 15 minutes at room temperature, and bioluminescence detected as previously described.

## CC1(C)OB(/C=C/COc2ccc3nc(C#N)sc3c2)OC1(C)C [PBI 4458, (E)-6-((3-(4,4,5,5-tetramethyl-1,3,2-dioxaborolan-2-yl)allyl)oxy)-benzo[d]thiazole-2-carbonitrile]
CAPS pH 10.4, 15 minutes
  Signal to Background Ratios at 15 Minutes: 13.2
  Net Average Signals at 15 Minutes: 4,577,774 RLU
CAPS pH 10.4, 60 minutes
  Signal to Background Ratios at 60 Minutes: 12.1
  Net Average Signals at 60 Minutes: 5,831,485 RLU
CAPS pH 10.4, 105 minutes
  Signal to Background Ratios at 105 Minutes: 9.6
  Net Average Signals at 105 Minutes: 8,063,108 RLU
HEPES pH 7.5, 15 minutes
  Signal to Background Ratios at 15 Minutes: 2.0
  Net Average Signals at 15 Minutes: 117,752 RLU
HEPES pH 7.5, 60 minutes
  Signal to Background Ratios at 60 Minutes: 4.5
  Net Average Signals at 60 Minutes: 494,958 RLU
HEPES pH 7.5, 105 minutes
  Signal to Background Ratios at 105 Minutes: 5.7
  Net Average Signals at 105 Minutes: 1,033,511 RLU
KPO4 Ph 7.4, 15 minutes
  Net Average Signals at 15 Minutes: 148,190 RLU
KPO4 pH 7.4, 15 minutes
  Signal to Background Ratios at 15 Minutes: 2.2
KPO4 pH 7.4, 60 minutes
  Signal to Background Ratios at 60 Minutes: 4.5
  Net Average Signals at 60 Minutes: 615,057 RLU
KPO4 pH 7.4, 105 minutes
  Signal to Background Ratios at 105 Minutes: 5.4
  Net Average Signals at 105 Minutes: 1,297,857 RLU
KPO4 pH 9.2, 15 minutes
  Signal to Background Ratios at 15 Minutes: 6.4
  Net Average Signals at 15 Minutes: 937,111 RLU
KPO4 pH 9.2, 60 minutes
  Signal to Background Ratios at 60 Minutes: 9.5
  Net Average Signals at 60 Minutes: 2,490,775 RLU
KPO4 pH 9.2, 105 minutes
  Signal to Background Ratios at 105 Minutes: 9.1
  Net Average Signals at 105 Minutes: 4,925,484 RLU
TRIS pH 10.4, 15 minutes
  Signal to Background Ratios at 15 Minutes: 15.2
  Net Average Signals at 15 Minutes: 2,348,900 RLU
TRIS pH 10.4, 60 minutes
  Signal to Background Ratios at 60 Minutes: 19.4
  Net Average Signals at 60 Minutes: 3,795,644 RLU
TRIS pH 10.4, 105 minutes
  Signal to Background Ratios at 105 Minutes: 15.7
  Net Average Signals at 105 Minutes: 5,482,012 RLU
Tris pH 7.4, 15 minutes
  Signal to Background Ratios at 15 Minutes: 2.2
  Net Average Signals at 15 Minutes: 150,205 RLU
Tris pH 7.4, 60 minutes
  Signal to Background Ratios at 60 Minutes: 4.6
  Net Average Signals at 60 Minutes: 626,927 RLU
Tris pH 7.4, 105 minutes
  Signal to Background Ratios at 105 Minutes: 6.0
  Net Average Signals at 105 Minutes: 1,274,061 RLU
